The nature of the data set: in vitro. To be noted: human, hela cells, % viability.

The viability is a read-out of living cells in per cent, often relative to untreated cells.

Turning to `Cc1cc(C)c2[nH]c(C)c(CC(=O)N(C)CCN(C)C)c2c1` [CBK282731], the viability at 28.5 h, 10 µM is 82.5%.
For `CCc1nc(C(C)NC(=O)COc2nn(C)c3nc(C)cc(C)c23)cs1` (stereo not shown) [CBK306024], the viability at 28.5 h, 10 µM was found to be 93.3%.
Take `CC(=O)c1c(C)oc(C)c1C(C)=O` [CBK012535]: the viability at 28.5 h, 10 µM came to 88.2%.
In the case of `N#Cc1nccnc1NCc1ccccc1CN1CCCC1CO` (stereo not shown) [CBK306418] it was 102%.
On to `O=C(Nc1ccccc1[N+](=O)[O-])C1(c2ccccc2)CCN(S(=O)(=O)c2ccccc2)CC1` [CBK267796], for which the viability at 28.5 h, 10 µM turned out to be 85.9%.
In the case of `OCc1ccccc1-c1cc(N2CCN(Cc3cccnc3)CC2)n2nccc2n1` [CBK037105], the viability at 28.5 h, 10 µM was found to be 98.9%.
Regarding `Cc1cc2c(cc3c(=O)n(CC(=O)N4CCCC4)nc(C)n32)s1` [CBK284065], the viability at 28.5 h, 10 µM was found to be 92.4%.
For `CC(=O)NC1(c2ccc(F)cc2)CCN(C(=O)C2CCCCC2)CC1` [CBK283546], the viability at 28.5 h, 10 µM amounted to 96.9%.
In the case of `Cc1cccnc1NC(=O)c1ccc(N2CCN(C)CC2)c([N+](=O)[O-])c1` [CBK269366] it was 95.4%.
Then `O=S(=O)([O-])CCC[n+]1c(/C=C/Nc2ccccc2)oc2ccc3ccccc3c21` [CBK261082], with 114%; and `CN(Cc1ccccc1N1CCCC1)C(=O)Cc1cn2ccsc2n1` [CBK305897], with 78%.
With `COc1cc(CNCc2cccnc2)ccc1OCc1cccs1` [CBK270082C], the viability at 28.5 h, 10 µM was 86.7%.
In the case of `Cc1ccc2nc(-c3ccc(-c4ccc(C(C)C)cc4)o3)cc(C(=O)O)c2c1` [CBK300083] it was 96.7%; in that of `CS(=O)(=O)N(CC(=O)O)c1cccc(C(F)(F)F)c1` [CBK286988], 87.8%.
As for `O=C(Nc1n[nH]c2ccccc12)c1ccccc1` [CBK017993], the viability at 28.5 h, 10 µM turned out to be 90.1%.
In the case of `CC(C)CN(Cc1ccc2c(c1)OCO2)C(=O)NCc1ccc(Cl)c(Cl)c1` [CBK159069] it was 95.3%; in that of `O=S(=O)(c1ccc(F)cc1)N1CCCC1c1cccc(Cc2ccccc2)n1` (stereo not shown) [CBK286231], 97.3%; in that of `COc1ccc(-c2ccc3ccc(NC(=O)C(C)C)nc3n2)cc1C` [CBK073665], 92.3%.
Then `CN(C)CCOCCS(=O)(=O)c1ccc(N2CCC(c3ccc(Cl)cc3)=N2)cc1` [CBK018115], with 114%; and `CCOC(=O)C(C)N1C(=O)S/C(=C/c2cc(C)n(-c3ccncc3)c2C)C1=O` (stereo not shown) [CBK265145], with 99.9%.
In the case of `O=c1n(CC2CCCCC2)c2ccccc2n1S(=O)(=O)c1cccc(Cl)c1` [CBK106521], the viability at 28.5 h, 10 µM came to 91.4%.
Then `CNc1nc(C2CCN(C(=O)c3ccc(N4CCC(C)CC4)cc3)C2)nc2c1CCN(C)C2` (stereo not shown) [CBK285835], with 106%; and `COc1ccccc1NC(=O)C(=O)NCCc1c[nH]c2ccccc12` [CBK266672], with 108%.
For the molecule `Cc1ccc(C)n1-c1ccc(CC(=O)O)cc1` [CBK116374], the viability at 28.5 h, 10 µM turned out to be 92.2%.
On to `Cc1cc(CN(C)C(=O)Cc2csc(NC(=O)c3ccoc3C)n2)no1` [CBK305779], for which the viability at 28.5 h, 10 µM stood at 102%.
Regarding `CCc1ccccc1Nc1nnc(SC(C)C(=O)N2CCCC2)s1` (stereo not shown) [CBK295197], the viability at 28.5 h, 10 µM stood at 106%.
With `CC1CC1C(=O)NCCN1CCC(O)(c2cccc(F)c2)CC1` (stereo not shown) [CBK283286], the viability at 28.5 h, 10 µM turned out to be 84.4%.
Then `CC(=O)Nc1ccc(C(=O)NC(c2cccs2)C2CCCC2)cc1` (stereo not shown) [CBK297777], with 84.1%; and `COc1ccc(N2C(=S)N(CC3CCCCC3)[C@H]3[C@H]4OC(=O)[C@H](C[C@H]4O)[C@H]32)cc1` [CBK288939], with 108%.
Regarding `Cn1nc(C(C)(C)C)cc1NC(=O)CN1CCc2cncnc2C1` [CBK304934], the viability at 28.5 h, 10 µM is 106%.
With `CCn1c(C)cc(C(=O)CSc2nnc(N3CCCC3)n2C2CC2)c1C` [CBK306035], the viability at 28.5 h, 10 µM was found to be 85.5%.
As for `Cc1cc(C=O)c(C)n1-c1ccc(Oc2ccc([N+](=O)[O-])cn2)cc1` [CBK264167], the viability at 28.5 h, 10 µM was 99.9%.
On to `CSc1nc(NC(=O)c2ccccc2)cc(N2CCNCC2)n1` [CBK050266T], for which the viability at 28.5 h, 10 µM was 93.6%.
As for `Cc1ccc(S(=O)(=O)N=C2NCN(C)CN2)cc1` [CBK261972], the viability at 28.5 h, 10 µM is 94.3%.
In the case of `COc1ccc(-c2ccccc2)cc1NCc1cc2cc(OC)c(OC)cc2[nH]c1=O` [CBK286160] it was 99.5%.
Then `O=S(=O)(Nc1ccc2[nH]ccc2c1)c1cccnc1` [CBK156811], with 71%.
Turning to `O=C(CSc1nnc(Cc2cccs2)n1-c1ccccc1)Nc1ccc(F)c(Cl)c1` [CBK267589], the viability at 28.5 h, 10 µM amounted to 92.3%.
Consider `CC(=O)N1CCC(n2c(C3CC3)nc3sc(C)c(C)c3c2=O)CC1` [CBK282369], for which the viability at 28.5 h, 10 µM worked out at 85.2%.
For the molecule `O=C(Nc1nc(-c2ccccc2)cs1)c1ccc(N2C(=O)CCC2=O)cc1` [CBK287333], the viability at 28.5 h, 10 µM was found to be 97.7%.
Then `Cc1ccc(NC(=O)c2cscn2)c(C)n1` [CBK200297], with 102%; and `COc1ccc(CCNC(=O)c2cnc(-c3ccc(Cl)cc3)c(-c3cccc(CNC(C)=O)c3)c2)cc1OC` [CBK164413], with 95%.
Take `CC(C)C(=O)N1CC2(CCN(CCc3c[nH]c4ccccc34)CC2)c2ccccc21` [CBK126725]: the viability at 28.5 h, 10 µM is 95.6%.
As to `O=C(NC(=S)CC1C=NCS1)c1ccccc1` (stereo not shown) [CBK020794], the viability at 28.5 h, 10 µM came out at 107%.
Consider `CCOC(=O)C(N)CSC1CC(=O)N(c2ccc(Br)cc2)C1=O` (stereo not shown) [CBK017250C], for which the viability at 28.5 h, 10 µM came out at 102%.
Consider `COc1ccccc1Cc1cccc(C2CCCN2C(=O)CCc2ccc(F)cc2)n1` (stereo not shown) [CBK286238], for which the viability at 28.5 h, 10 µM was determined as 101%.
As for `O=P(O)(CNCc1ccccc1)CNCc1ccccc1` [CBK261604C], the viability at 28.5 h, 10 µM was determined as 118%.
Turning to `CC1(C)NC(=O)N(CC(O)COc2ccc([N+](=O)[O-])cc2)C1=O` (stereo not shown) [CBK262840], the viability at 28.5 h, 10 µM stood at 98.8%.
For the molecule `O=C(c1ccccc1F)N1CC2CCCC(C1)C2N1CCOCC1` (stereo not shown) [CBK285262], the viability at 28.5 h, 10 µM is 79.9%.
Take `COc1cc(/C(CS(C)(=O)=O)=N\O)cc(OC)c1OC` [CBK022984]: the viability at 28.5 h, 10 µM was determined as 83.8%.
In the case of `CCCC/C=C/c1nccnc1N[C@@H](C)c1ccccc1` [CBK037138] it was 84.7%.
In the case of `COc1cc(CN2CCC(N3CCCCCC3)CC2)ccc1OCc1ccccc1` [CBK264709G] it was 90.6%; in that of `COC(=O)c1cc(CN2CCCN(S(=O)(=O)c3ccc(C(F)(F)F)cc3Cl)CC2)cn1C` [CBK063097], 99.4%; in that of `Cc1cc(C)n(-c2nc3ccccc3nc2N2CCN(S(=O)(=O)c3ccc(F)c(C)c3)CC2)n1` [CBK268508], 91.1%.
On to `Cc1ccc(S(=O)(=O)NCCNc2ccc([N+](=O)[O-])cc2C(F)(F)F)cc1` [CBK265140], for which the viability at 28.5 h, 10 µM stood at 90.6%.
For the molecule `NS(=O)(=O)c1ccc(Nc2nc(-c3cccs3)cs2)cc1` [CBK262502], the viability at 28.5 h, 10 µM is 96.2%.
In the case of `CCc1ccc2[nH]c3nc(NN)nnc3c2c1` [CBK262734], the viability at 28.5 h, 10 µM was determined as 65.1%.
For the molecule `O=C1CC(c2ccc(C(=O)O)cc2)c2c(-c3ccc(Cl)cc3)n[nH]c2N1` (stereo not shown) [CBK286684], the viability at 28.5 h, 10 µM is 97%.
On to `O/N=C1\CSCc2ncccc21` [CBK007234], for which the viability at 28.5 h, 10 µM was determined as 90.1%.
Turning to `CCC(=O)NC1Cc2cccc3c2N(CCC3)C1=O` (stereo not shown) [CBK010667], the viability at 28.5 h, 10 µM came out at 113%.
On to `COc1ccc(CCNS(=O)(=O)c2ccc(C3CNC(=O)C3)cc2)cc1OC` (stereo not shown) [CBK268352], for which the viability at 28.5 h, 10 µM was found to be 112%.
Regarding `COc1ccccc1N1CCN(c2cc(N3CCNCC3)ccc2[N+](=O)[O-])CC1` [CBK293931], the viability at 28.5 h, 10 µM came to 85.1%.
For `N#Cc1c(NC(=O)CN2CCc3ccccc3C2)sc2c1CCCC2` [CBK269126], the viability at 28.5 h, 10 µM came out at 105%.
Turning to `COc1ccc(C(=O)C2=C(O)C(=O)N(CCN3CCNCC3)C2c2ccc(Cl)c(Cl)c2)cc1` (stereo not shown) [CBK264616], the viability at 28.5 h, 10 µM was 95.1%.
Then `COc1ccc(C2CC(c3ccc(NS(C)(=O)=O)cc3)=NN2C(=O)CCCC(=O)O)cc1` (stereo not shown) [CBK297780], with 116%.
For `CCN1CC(C(=O)N2CCN(C(=O)c3ccccc3F)CC2)CC1=O` (stereo not shown) [CBK282937], the viability at 28.5 h, 10 µM stood at 92.3%.
In the case of `COc1ccc(CCn2cncc2-c2cnn(C)c2)cc1C` [CBK281457] it was 107%; in that of `COc1ccc2[nH]cc(CCNC(=O)c3cccnc3)c2c1` [CBK122722], 101%; in that of `COCCN(Cc1cn2cccc(C(=O)OC)c2n1)Cc1ccco1` [CBK305366], 97.8%.
On to `Cc1nc(CCNCc2c(C)nn(C)c2N(C)C)cs1` [CBK304828], for which the viability at 28.5 h, 10 µM worked out at 88.3%.
On to `Cn1cc([C@H]2C[C@@H](O)[C@@H](CO)O2)c(=O)[nH]c1=O` [CBK201171], for which the viability at 28.5 h, 10 µM worked out at 88.9%.
Take `CC(C)[C@@H](CO)Nc1cncc(-c2ccc3ccccc3c2)n1` [CBK065546]: the viability at 28.5 h, 10 µM amounted to 100%.
On to `COc1ccc2[nH]c3c(c2c1)CCN(CCc1ccc(F)cc1)C3` [CBK082819T], for which the viability at 28.5 h, 10 µM was found to be 92.3%.
As to `COc1ccc(-c2cc(C(=O)NCc3cc(Cl)cc(Cl)c3)cnc2-c2ccc(Cl)cc2)cn1` [CBK037431], the viability at 28.5 h, 10 µM came out at 88.8%.
With `CCCN1C[C@@H](O)C[C@H]2[C@H](O)[C@@H]1c1ccccc1N2C(=O)OC` [CBK007809], the viability at 28.5 h, 10 µM stood at 91.8%.
As to `COc1cc2c(cc1OC)CN(CCO)CC2` [CBK138322], the viability at 28.5 h, 10 µM is 108%.
Then `CC(=O)Nc1ccc(-n2cc(CN3CCC(Sc4ccccn4)CC3)nn2)cc1` [CBK149476], with 99.5%; and `COc1cc(C)c(Nc2cc(-c3ccc(CC(C)C)cc3)ncn2)cc1OC` [CBK090785], with 91.2%; and `Cc1cc(NC(=O)CN2CCN(c3ccc(F)cc3)CC2)nc2c1c(=O)oc1ccccc12` [CBK291232], with 88.8%.
In the case of `O=C(Nc1cccnc1)c1ncoc1-c1ccc(F)cc1` [CBK104357] it was 106%.

Source of the values: publication PMC12040169 (PLOS Biology, 2025).
